Experimental findings from ChEMBL document CHEMBL3112524, “Rigid spiroethers targeting the decoding center of the bacterial ribosome” (Bioorg Med Chem, 2014) are described below.

Values after ≈ are worked out from the molar mass of the structure shown. Active and inactive are the calls of the source. The rule behind the calls is not given here.

Assay [1] can be described thus: Binding affinity to 2AP-labelled duplex RNA (unknown origin) by fluorescence spectrophotometric analysis.
A further assay relates to Staphylococcus aureus. The assay is described as follows: Antibacterial activity against Staphylococcus aureus ATCC 29213 assessed as growth inhibition after 18 hrs by geometric microdilution method. The format is functional.
In assay [2] the test system is Escherichia coli. The assay is described as follows: Antibacterial activity against kanamycin-resistant Escherichia coli K-12 JW 0451-2 harboring acrB747 deletion mutant assessed as growth inhibition after 18 hrs by geometric microdilution method. Conditions: K-12 JW 0451-2, 18 h. Type of assay: functional.
Assay [3] relates to Escherichia coli. As to the kind of experiment: Antibacterial activity against kanamycin-resistant Escherichia coli K-12 JW 5503-1 harboring tolc732 deletion mutant assessed as growth inhibition after 18 hrs by geometric microdilution method. The format is functional. The note with it: K-12 JW 5503-1, 18 h.
Assay [4] concerns Escherichia coli. The assay is described as follows: Antibacterial activity against Escherichia coli ATCC 25922 assessed as growth inhibition after 18 hrs by geometric microdilution method. The format is functional.
The target in the next assay is Bacterial 70S ribosome. The assay is described as follows: Binding affinity to Escherichia coli ribosome assessed as inhibition of transcription-translation activity preincubated for 30 mins followed by substrate addition measured after 5 mins by luciferase assay.
A further assay has as its system Pseudomonas aeruginosa. As to the kind of experiment: Antibacterial activity against Pseudomonas aeruginosa ATCC 27853 assessed as growth inhibition after 18 hrs by geometric microdilution method. The format is functional.
The subject of assay [5] is Escherichia coli. The assay is described as follows: Antibacterial activity against kanamycin-resistant Escherichia coli K-12 JW 3596-1 harboring rfaC733 deletion mutant assessed as growth inhibition after 18 hrs by geometric microdilution method. The format is functional. The note with it: K-12 JW 3596-1, 18 h.

Consider `N[C@@H]1C[C@H](N)[C@@]2(CC[C@@H](O)[C@@H](O)CO2)[C@H](O)[C@H]1O`, for which the EC50 in assay [1] was found to be 141 µM.

Regarding `NCCCC[C@H](N)CN[C@@H]1C[C@H](N)[C@@]2(CC[C@H](O)[C@H](O)CO2)[C@H](O)[C@H]1O`, the MIC was 3.8 µg/mL (≈ 10.1 µM) with Staphylococcus aureus (ATCC 29213, 18 h); 118 µg/mL (≈ 313 µM) in the assay on Escherichia coli [2]; 118 µg/mL (≈ 313 µM) in the assay with Escherichia coli [3]; 236 µg/mL (≈ 627 µM) in the assay with Escherichia coli [4] (ATCC 25922, 18 h); above 118 µg/mL in the assay with Pseudomonas aeruginosa (ATCC 27853, 18 h); above 118 µg/mL in the assay with Escherichia coli [5]. The IC50 on Bacterial 70S ribosome was 100 µM. In addition, the EC50 in assay [1] was 0.09 µM.

As to `NCC[C@H](O)C(=O)N[C@@H]1C[C@H](N)[C@@]2(C[C@H](O)[C@H](O)CO2)[C@H](O)[C@H]1O`, the IC50 on Bacterial 70S ribosome was above 600 µM. A half-maximal response in assay [1] (EC50) required 12.6 µM.

Regarding `N[C@@H](Cc1ccc(O)cc1)C(=O)N[C@@H]1C[C@H](N)[C@@]2(C[C@H](O)[C@H](O)CO2)[C@H](O)[C@H]1O`, the half-inhibitory concentration (IC50) on Bacterial 70S ribosome was above 600 µM.

On to `N[C@@H]1C[C@H](N)[C@@]2(CC[C@@H](CNC(=O)[C@@H]3CCCN3)O2)[C@H](O)[C@H]1O`, for which, at Bacterial 70S ribosome, the IC50 worked out at 156 µM. Moreover, the EC50 in assay [1] is 0.68 µM.

As for `NCCCC[C@H](N)C(=O)NC[C@@H]1CC[C@@]2(O1)[C@H](O)[C@@H](O)[C@H](N)C[C@@H]2N`, the MIC was 7.2 µg/mL (≈ 20 µM) in the assay on Staphylococcus aureus (ATCC 29213, 18 h); above 112 µg/mL in the assay with Escherichia coli [2]; above 112 µg/mL with Escherichia coli [3]; above 112 µg/mL with Escherichia coli [4] (ATCC 25922, 18 h); above 112 µg/mL in the assay on Pseudomonas aeruginosa (ATCC 27853, 18 h); 112 µg/mL (≈ 312 µM) with Escherichia coli [5]. On Bacterial 70S ribosome, the 50% inhibitory concentration (IC50) was found to be 325 µM. This compound showed an EC50 in assay [1] of 1.4 µM.

On to `N[C@@H]1C[C@H](N)[C@@]2(CC[C@@H](CNC(=O)[C@@H](N)Cc3c[nH]c4ccccc34)O2)[C@H](O)[C@H]1O`, for which the minimal inhibitory concentration (MIC) with Staphylococcus aureus (ATCC 29213, 18 h) is 8.4 µg/mL (≈ 20.1 µM); with Escherichia coli [2], 32.5 µg/mL (≈ 77.8 µM); in the assay on Escherichia coli [3], 131 µg/mL (≈ 314 µM); in the assay on Escherichia coli [4] (ATCC 25922, 18 h) it was 98 µg/mL (≈ 235 µM); in the assay on Pseudomonas aeruginosa (ATCC 27853, 18 h), 65 µg/mL (≈ 156 µM); in the assay on Escherichia coli [5], above 131 µg/mL. Also, the IC50 on Bacterial 70S ribosome came to 149 µM.

As to `NCCCC[C@H](N)C(=O)N[C@@H]1C[C@H](N)[C@@]2(CC[C@@H](O)[C@@H](O)CO2)[C@H](O)[C@H]1O`, the 50% inhibitory concentration (IC50) on Bacterial 70S ribosome was above 600 µM. Further, the EC50 in assay [1] was found to be 1.2 µM.

`N[C@@H]1C[C@H](N)[C@@]2(CC[C@@H](CNC(=O)[C@@H](N)Cc3ccc(O)cc3)O2)[C@H](O)[C@H]1O`: on Bacterial 70S ribosome, the IC50 is above 600 µM.

In assay [1], `N[C@@H]1C[C@H](N)[C@@]2(C[C@H](O)[C@H](O)CO2)[C@H](O)[C@H]1O` yielded a 50% effective concentration (EC50) of 6.5 µM.

Take `NCCCC[C@H](N)CN[C@@H]1C[C@H](N)[C@@]2(CC[C@@H](O)[C@@H](O)CO2)[C@H](O)[C@H]1O`: the MIC with Staphylococcus aureus (ATCC 29213, 18 h) is 14.7 µg/mL (≈ 39 µM); with Escherichia coli [2], 118 µg/mL (≈ 313 µM); with Escherichia coli [3], above 118 µg/mL; with Escherichia coli [4] (ATCC 25922, 18 h) it was 236 µg/mL (≈ 627 µM); with Pseudomonas aeruginosa (ATCC 27853, 18 h), above 118 µg/mL; in the assay on Escherichia coli [5], above 118 µg/mL. Also, the IC50 at Bacterial 70S ribosome is above 600 µM. The same compound registered a concentration giving a half-maximal response (EC50) in assay [1] of 0.65 µM.

In the case of `NCC[C@H](O)CN[C@@H]1C[C@H](N)[C@@]2(CC[C@H](O)[C@H](O)CO2)[C@H](O)[C@H]1O`, at Bacterial 70S ribosome, the IC50 is above 600 µM. Also, it took 0.93 µM to reach a half-maximal effect in assay [1] (EC50).

On to `NCCCC[C@H](N)CN[C@@H]1C[C@H](N)[C@@]2(C[C@H](O)[C@H](O)CO2)[C@H](O)[C@H]1O`, for which, at Bacterial 70S ribosome, the IC50 came to 540 µM. For the same compound, in assay [1], the concentration for a half-maximal effect (EC50) is 0.15 µM.

The compound `NCCCC[C@H](N)C(=O)N[C@@H]1C[C@H](N)[C@@]2(CC[C@H](O)[C@H](O)CO2)[C@H](O)[C@H]1O` yielded an EC50 in assay [1] of 12 µM.

On to `NC[C@@H]1O[C@H](O[C@H]2[C@@H](O)[C@H](O[C@@H]3[C@@H](O)[C@H](N)C[C@H](N)[C@H]3O[C@H]3O[C@H](CO)[C@@H](O)[C@H](O)[C@H]3N)O[C@@H]2CO)[C@H](N)[C@@H](O)[C@@H]1O` [PAROMOMYCIN], for which the minimum inhibitory concentration (MIC) in the assay with Staphylococcus aureus (ATCC 29213, 18 h) worked out at 4 µg/mL (≈ 6.5 µM); in the assay with Escherichia coli [2] it was 113 µg/mL (≈ 184 µM); in the assay on Escherichia coli [3], 113 µg/mL (≈ 184 µM); in the assay on Escherichia coli [4] (ATCC 25922, 18 h) it was 4 µg/mL (≈ 6.5 µM); with Pseudomonas aeruginosa (ATCC 27853, 18 h), 113 µg/mL (≈ 184 µM); in the assay on Escherichia coli [5] it was 113 µg/mL (≈ 184 µM).

As to `N[C@@H]1C[C@H](N)[C@@]2(CC[C@H](O)[C@H](O)CO2)[C@H](O)[C@H]1O`, the EC50 in assay [1] was 74 µM.

For `NCCCC[C@H](N)C(=O)N[C@@H]1C[C@H](N)[C@@]2(C[C@H](O)[C@H](O)CO2)[C@H](O)[C@H]1O`, the concentration for half-maximal inhibition (IC50) on Bacterial 70S ribosome is 350 µM. In assay [1], this compound gave an EC50 of 0.89 µM.

Take `N[C@H](CN[C@@H]1C[C@H](N)[C@@]2(CC[C@@H](O)[C@@H](O)CO2)[C@H](O)[C@H]1O)Cc1ccc(O)cc1`: at Bacterial 70S ribosome, the IC50 is above 600 µM.

With `NCC[C@H](O)C(=O)N[C@@H]1C[C@H](N)[C@@]2(CC[C@@H](O)[C@@H](O)CO2)[C@H](O)[C@H]1O`, on Bacterial 70S ribosome, the IC50 is above 600 µM. It took 0.39 µM to reach a half-maximal effect in assay [1] (EC50).

In the case of `NC[C@H]1O[C@H](O[C@H]2[C@H](O)[C@@H](O)[C@H](N)C[C@@H]2N)[C@H](N)[C@@H](O)[C@@H]1O` [NEAMINE], the MIC in the assay on Staphylococcus aureus (ATCC 29213, 18 h) came out at 5 µg/mL (≈ 15.5 µM); in the assay with Escherichia coli [2], 150 µg/mL (≈ 465 µM); in the assay with Escherichia coli [3], 300 µg/mL (≈ 931 µM); with Escherichia coli [4] (ATCC 25922, 18 h), 14 µg/mL (≈ 43.4 µM); in the assay on Pseudomonas aeruginosa (ATCC 27853, 18 h), 73 µg/mL (≈ 226 µM); with Escherichia coli [5], 150 µg/mL (≈ 465 µM). Also, a half-maximal effect in assay [1] (EC50) was put at 9.5 µM.

Regarding `NCC[C@H](O)C(=O)N[C@@H]1C[C@H](N)[C@@]2(CC[C@H](O)[C@H](O)CO2)[C@H](O)[C@H]1O`, in assay [1], the EC50 worked out at 6.9 µM.

On to `N[C@@H]1C[C@H](N)[C@@]2(CC[C@@H](CNC(=O)[C@@H](N)Cc3cnc[nH]3)O2)[C@H](O)[C@H]1O`, for which the IC50 at Bacterial 70S ribosome turned out to be 172 µM. The concentration giving a half-maximal response (EC50) in assay [1] came out at 1.6 µM.

Turning to `N[C@@H](Cc1ccc(O)cc1)C(=O)N[C@@H]1C[C@H](N)[C@@]2(CC[C@H](O)[C@H](O)CO2)[C@H](O)[C@H]1O`, the IC50 at Bacterial 70S ribosome worked out at 450 µM.

Regarding `N[C@H](CN[C@@H]1C[C@H](N)[C@@]2(CC[C@H](O)[C@H](O)CO2)[C@H](O)[C@H]1O)Cc1ccc(O)cc1`, the MIC entry in the assay on Staphylococcus aureus, in the assay on Escherichia coli [4] and in the assay on Pseudomonas aeruginosa was “inactive” throughout. Also, the MIC was 129 µg/mL (≈ 313 µM) in the assay with Escherichia coli [2], above 129 µg/mL in the assay on Escherichia coli [3] and above 129 µg/mL in the assay on Escherichia coli [5]. The IC50 at Bacterial 70S ribosome was above 600 µM.

With `N=C(N)NCCC[C@H](N)C(=O)NC[C@@H]1CC[C@@]2(O1)[C@H](O)[C@@H](O)[C@H](N)C[C@@H]2N`, the IC50 at Bacterial 70S ribosome is 98 µM. The EC50 in assay [1] is 1.5 µM.

With `N[C@@H](Cc1ccc(O)cc1)C(=O)N[C@@H]1C[C@H](N)[C@@]2(CC[C@@H](O)[C@@H](O)CO2)[C@H](O)[C@H]1O`, the half-maximal inhibitory concentration (IC50) on Bacterial 70S ribosome is above 600 µM.
